Columns and labels:
[1] = target: T1, D816V Kit (Homo sapiens, UniProt P10721, D816V); test: Kit D816V assay at Km (Caliper electrophoretic mobility shift); assay type: biochemical; settings: 15 uM ATP, 25 C, 90 minutes
T1 construct: purchased Carna Bioscience 08-156
Method: In order to assess the activity of chemical compounds against the relevant kinase of interest, the Caliper LifeSciences electrophoretic mobility shift technology platform is used. Fluorescently labeled substrate peptide is incubated in the presence of kinase and ATP so that a […] proportion of the peptide is phosphorylated. At the end of the reaction, the mix of phosphorylated (product) and non-phosphorylated (substrate) peptides are passed through the microfluidic system of the Caliper EZ Reader 2, under an applied potential difference. The presence of the phosphate group on the product peptide provides a difference in mass and charge between those of the substrate peptide, resulting in a separation of the substrate and product pools in the sample. As the pools pass a LEDS within the instrument, these pools are detected and resolved as separate peaks. The ratio between these peaks therefore reflects the activity of the chemical matter at that concentration in that well, under those conditions.
The reaction was stopped by the addition of 70 ul of Stop buffer (100 mM HEPES pH 7.5, 0.015% Brij 35, 35 mM EDTA and 0.2% of Coating Reagent 3 (Caliper Lifesciences)). The plate was then read on a Caliper EZReader 2 (protocol settings: −1.9 psi, upstream voltage −700, downstream voltage −3000, post sample sip 35 s).

[2] = target: T2, Kit D816V (HMC1.2 cells, Kit V560G and D816V) (Homo sapiens, UniProt P10721, D816V/V560G); test: HMC1.2 autophosphorylation assay (AlphaLISA, phospho-Y719 c-Kit); assay type: cell-based; settings: Kit autophosphorylation at tyrosine 719, 90 minutes, read-out: Cellular Activity
T2 construct: endogenous in cells; host or cells: HMC1.2 cells
Method: HMC1.2 Autophosphorylation Assay:
10,000 HMC1.2 cells were incubated in 22 ul culture media (phenol-red free IMDM, no serum) in each well of a 384-well plate and serum starved overnight in a tissue culture incubator (5% CO2, 37° C.). A 10-point dose concentration series of compound (25 uM-95.4 pM) were then added to the cells in a volume of 3.1 ul to each well (0.25% DMSO final concentration). After 90 minutes, 6 ul of 5× AlphaLISA Lysis Buffer (Perkin Elmer) supplemented with a protease and phosphatase inhibitor cocktail (Cell Signaling Technologies) was added to each well and shaken at 450 rpm for 15 minutes at 4° C. 10 ul of phospho-Y719 c-Kit and total c-Kit antibodies (15 nM final concentration, Cell Signaling Technologies) and 50 ug/ml AlphaLISA rabbit acceptor beads (Perkin Elmer) were added to each well and shaken at 300 rpm at room temperature for 2 hours. 10 ul of 100 ug/ml streptavidin donor beads (Perkin Elmer) were added to each well, blocked from light with aluminum adhesive and shaken at 300 rpm at room temperature for 2 hours. Fluorescence signal was obtained on Envision (Perkin Elmer) by AlphaScreen 384 well HTS protocol.
This cell line contains Kit mutated at positions V560G and D816V resulting in constitutive activation of the kinase. The following compounds were tested in an assay to measure direct inhibition of Kit D816V kinase activity by assaying Kit autophosphorylation at tyrosine 719 on the Kit protein.

T1 sequence (P10721 26-976 D816V): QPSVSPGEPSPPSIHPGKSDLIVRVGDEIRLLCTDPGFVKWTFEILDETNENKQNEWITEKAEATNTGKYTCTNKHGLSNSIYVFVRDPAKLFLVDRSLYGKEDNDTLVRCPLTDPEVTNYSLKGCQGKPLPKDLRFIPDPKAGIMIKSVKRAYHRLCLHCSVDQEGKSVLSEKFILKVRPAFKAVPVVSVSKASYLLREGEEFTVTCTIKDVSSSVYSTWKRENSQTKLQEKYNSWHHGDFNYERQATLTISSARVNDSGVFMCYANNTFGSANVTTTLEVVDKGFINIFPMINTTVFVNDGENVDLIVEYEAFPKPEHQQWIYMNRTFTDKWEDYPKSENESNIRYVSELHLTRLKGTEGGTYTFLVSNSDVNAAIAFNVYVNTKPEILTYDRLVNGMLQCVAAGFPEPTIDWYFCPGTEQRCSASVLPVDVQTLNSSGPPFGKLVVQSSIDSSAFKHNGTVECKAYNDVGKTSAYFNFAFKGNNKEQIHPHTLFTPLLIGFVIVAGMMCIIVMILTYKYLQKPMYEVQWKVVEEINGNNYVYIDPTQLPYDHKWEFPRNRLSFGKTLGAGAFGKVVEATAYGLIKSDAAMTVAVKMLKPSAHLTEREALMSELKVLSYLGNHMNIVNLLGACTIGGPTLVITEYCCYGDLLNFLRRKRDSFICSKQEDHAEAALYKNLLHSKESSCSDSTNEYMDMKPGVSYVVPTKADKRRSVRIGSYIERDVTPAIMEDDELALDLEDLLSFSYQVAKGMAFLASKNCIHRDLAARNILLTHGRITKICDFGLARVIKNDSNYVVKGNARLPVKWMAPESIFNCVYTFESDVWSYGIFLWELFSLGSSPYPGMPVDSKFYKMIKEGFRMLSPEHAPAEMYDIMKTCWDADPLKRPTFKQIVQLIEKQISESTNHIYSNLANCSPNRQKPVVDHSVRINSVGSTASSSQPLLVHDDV
T2 sequence (P10721 26-976 V560G/D816V): as the sequence (P10721 26-976 D816V) above, with V535G counted along it

Row | IC50 [1] | IC50 [2] | Structure (SMILES)
1 | 1.01 to 10 nM | 10 to 100 nM | CN1CCNC[C@H]1Cn1cc(Nc2ncnc(N3CCN(c4ncc(Cc5ccccc5)cn4)CC3)n2)cn1 [Compound 176]
2 | < 1 nM | 10 to 100 nM | OC[C@H](O)c1ccc(Nc2ncnc(N3CCN(c4ncc(Cc5ccc(F)cc5)cn4)CC3)n2)cc1 [Compound 93]
3 | < 1 nM | 10 to 100 nM | c1ccc(Cc2cnc(N3CCN(c4ncnc(Nc5cnn(C6COC6)c5)n4)CC3)nc2)cc1 [Compound 28]
4 | 1.01 to 10 nM | 10 to 100 nM | OC[C@H](O)COc1ccc(Nc2ncnc(N3CCN(c4ncc(Cc5ccccc5)cn4)CC3)n2)cc1 [Compound 131]
5 | 1.01 to 10 nM | 10 to 100 nM | C=C(c1ccccc1)c1cnc(N2CCN(c3ncnc(Nc4cnn(C[C@@H]5CNCCO5)c4)n3)CC2)nc1 [Compound 173]
6 | < 1 nM | 10 to 100 nM | Cn1cc(Nc2ncnc(N3CCN(c4ncc([C@](C)(O)c5ccc(F)cc5)cn4)CC3)n2)cn1 [Compound 39]
7 | 1.01 to 10 nM | 1000 to 10000 nM | COc1nc(N2CCN(c3ncnc(Nc4cnn(C[C@@H]5CNCCO5)c4)n3)CC2)ncc1Cc1ccccc1 [Compound 246]
8 | < 1 nM | 10 to 100 nM | Cc1[nH]ncc1Nc1ncnc(N2CCN(c3ncc(Sc4ccccc4F)cn3)CC2)n1 [Compound 20]
9 | < 1 nM | 10 to 100 nM | CC(c1ccccc1)c1cnc(N2CCN(c3ncnc(Nc4ccc5c(c4)CNCC5)n3)CC2)nc1 (stereo not shown) [Compound 71]
10 | < 1 nM | 10 to 100 nM | CC1(C(O)c2ccc(Nc3ncnc(N4CCN(c5ncc(Cc6ccccc6)cn5)CC4)n3)cc2)COC1 (stereo not shown) [Compound 172]
11 | 1.01 to 10 nM | 10 to 100 nM | C[C@@]1(O)CCCN(c2ccc(Nc3ncnc(N4CCN(c5ncc(Cc6ccccc6)cn5)CC4)n3)cc2)C1 [Compound 227]
12 | < 1 nM | 10 to 100 nM | C[C@@H](c1ccccc1)c1cnc(N2CCN(c3ncnc(Nc4ccc(N5CCC[C@@H](O)C5)cc4)n3)CC2)nc1 [Compound 224]
13 | 1.01 to 10 nM | 100 to 1000 nM | Fc1cc(O[C@H]2CCCNC2)ccc1Nc1ncnc(N2CCN(c3ncc(Cc4ccccc4)cn3)CC2)n1 [Compound 238]
14 | 1.01 to 10 nM | 100 to 1000 nM | O=C(c1ccccc1)c1cnc(N2CCN(c3ncnc(Nc4cnn(CC5CNCCO5)c4)n3)CC2)nc1 (stereo not shown) [Compound 178]
15 | < 1 nM | < 10 nM | CC(C)(c1ccccc1)c1cnc(N2CCN(c3ncnc(Nc4ccc([C@H](O)CO)cc4)n3)CC2)nc1 [Compound 119]
16 | 10 to 100 nM | 1000 to 10000 nM | Nc1nc(N2CCN(c3ncnc(Nc4cnn(CC5CNCCO5)c4)n3)CC2)ncc1Cl (stereo not shown) [Compound 34]
17 | < 1 nM | 10 to 100 nM | CC(O)(c1ccccc1)c1cnc(N2CCN(c3ncnc(Nc4cnn(C[C@@H]5CNCCO5)c4)n3)CC2)nc1 (stereo partly shown) [Compound 250]
18 | < 1 nM | < 10 nM | OCc1ccccc1Cc1cnc(N2CCN(c3ncnc(Nc4ccc5c(c4)CNCC5)n3)CC2)nc1 [Compound 109]
19 | 1.01 to 10 nM | 10 to 100 nM | Fc1ccccc1Oc1cnc(N2CCN(c3ncnc(Nc4cnn(C[C@@H]5CNCCO5)c4)n3)CC2)nc1 [Compound 203, (S)-4-(4-(5-(2-fluorophenoxyl)pyrimidin-2-yl)piperazin-1-yl)-N-(1-(morpholin-2-ylmethyl)-1H-pyrazol-4-yl)-1,3,5-triazin-2-amine]
20 | < 1 nM | < 10 nM | C[C@H](O)CN1CCc2ccc(Nc3ncnc(N4CCN(c5ncc(Cc6ccccc6)cn5)CC4)n3)cc2C1 [Compound 221]
21 | 1.01 to 10 nM | 10 to 100 nM | Cc1nn(C2COC2)cc1Nc1ncnc(N2CCN(c3ncc(Sc4ccccc4F)cn3)CC2)n1 [Compound 146]
22 | < 1 nM | 10 to 100 nM | c1ccc(Cc2cnc(N3CCN(c4ncnc(Nc5cnn(C[C@H]6COCCN6)c5)n4)CC3)nc2)cc1 [Compound 125]
23 | < 1 nM | < 10 nM | CC(C)(O)c1ccc(Nc2ncnc(N3CCN(c4ncc([C@@](C)(N)c5ccc(F)cc5)cn4)CC3)n2)cc1 [Compound 193]
24 | 1.01 to 10 nM | 100 to 1000 nM | Cc1nc(N2CCN(c3ncnc(Nc4ccc5c(c4)CNCC5)n3)CC2)ncc1Cc1ccccc1 [Compound 70]

Row | IC50 [1] | IC50 [2] | Structure (SMILES)
25 | < 1 nM | 10 to 100 nM | c1ccc(Cc2cnc(N3CCN(c4ncnc(Nc5ccc(O[C@@H]6CCNC6)cc5)n4)CC3)nc2)cc1 [Compound 107]
26 | < 1 nM | 10 to 100 nM | C[C@](O)(c1ccc(F)cc1)c1cnc(N2CCN(c3ncnc(Nc4cnn(C[C@@H]5CNCCO5)c4)n3)CC2)nc1 [Compound 269]
27 | 1.01 to 10 nM | 10 to 100 nM | c1ccc(Cc2cnc(N3CCN(c4ncnc(Nc5ccc(O[C@H]6CCCNC6)nc5)n4)CC3)nc2)cc1 [Compound 171]
28 | < 1 nM | < 10 nM | OC1(c2ccc(Nc3ncnc(N4CCN(c5ncc(Cc6ccccc6)cn5)CC4)n3)cc2)CCCNC1 (stereo not shown) [Compound 236]
29 | 1.01 to 10 nM | 10 to 100 nM | CC1(O)CCCN(c2ccc(Nc3ncnc(N4CCN(c5ncc(Cc6ccccc6)cn5)CC4)n3)cc2)C1 (stereo not shown) [Compound 225]
30 | 1.01 to 10 nM | 10 to 100 nM | OC[C@@H](O)COc1cccc(Nc2ncnc(N3CCN(c4ncc(Cc5ccccc5)cn4)CC3)n2)c1 [Compound 130]
31 | 1.01 to 10 nM | < 10 nM | O[C@H]1CCCN(c2ccc(Nc3ncnc(N4CCN(c5ncc(Cc6ccc(F)cc6)cn5)CC4)n3)cc2)C1 [Compound 240]
32 | < 1 nM | 10 to 100 nM | OCc1nc(N2CCN(c3ncnc(Nc4ccc5c(c4)CNCC5)n3)CC2)ncc1Cc1ccccc1 [Compound 110]
33 | < 1 nM | 10 to 100 nM | C[C@H](O)Cn1cc(Nc2ncnc(N3CCN(c4ncc(Sc5ccccc5F)cn4)CC3)n2)cn1 [Compound 100]
34 | < 1 nM | 10 to 100 nM | Fc1ccccc1Sc1cnc(N2CCN(c3ncnc(Nc4cnn(C[C@@H]5CNCCO5)c4)n3)CC2)nc1 [Compound 255]
35 | 1.01 to 10 nM | 10 to 100 nM | OC[C@@H](O)COc1ccc(Nc2ncnc(N3CCN(c4ncc(Cc5ccccc5)cn4)CC3)n2)cc1 [Compound 129]
36 | 1.01 to 10 nM | 10 to 100 nM | Cc1nn(C[C@@H]2CNCCO2)cc1Nc1ncnc(N2CCN(c3ncc(Cc4ccccc4)cn3)CC2)n1 [Compound 184]
37 | 1.01 to 10 nM | 10 to 100 nM | OC1(c2ccc(Nc3ncnc(N4CCN(c5ncc(Cc6ccccc6)cn5)CC4)n3)cc2)COC1 [Compound 79]
38 | 1.01 to 10 nM | 10 to 100 nM | OC1(c2ccc(Nc3ncnc(N4CCN(c5ncc(Cc6ccccc6)cn5)CC4)n3)cc2)CCCCC1 [Compound 155]
39 | 1.01 to 10 nM | 10 to 100 nM | c1ccc(C2(c3cnc(N4CCN(c5ncnc(Nc6cnn(C[C@@H]7CNCCO7)c6)n5)CC4)nc3)CC2)cc1 [Compound 233]
40 | < 1 nM | 10 to 100 nM | C[C@](N)(c1ccc(F)cc1)c1cnc(N2CCN(c3ncnc(Nc4ccccc4)n3)CC2)nc1 [Compound 29]
41 | < 1 nM | 10 to 100 nM | Fc1ccc(Cc2cnc(N3CCN(c4ncnc(Nc5cnn(C[C@@H]6CNCCO6)c5)n4)CC3)nc2)cc1 [Compound 196]
42 | 1.01 to 10 nM | 100 to 1000 nM | Fc1cccc(Cc2cnc(N3CCN(c4ncnc(Nc5cnn(C[C@@H]6CNCCO6)c5)n4)CC3)nc2)c1 [Compound 197]
43 | 1.01 to 10 nM | 1000 to 10000 nM | Fc1cc(N2CCNCC2)ccc1Nc1ncnc(N2CCN(c3ncc(Cc4ccccc4)cn3)CC2)n1 [Compound 175]
44 | 1.01 to 10 nM | 10 to 100 nM | c1ccc(Cc2cnc(N3CCN(c4ncnc(Nc5cnn(C6CNC6)c5)n4)CC3)nc2)cc1 [Compound 27]
45 | < 1 nM | 10 to 100 nM | Nc1nc(N2CCN(c3ncnc(Nc4ccc(N5CCC[C@@H](O)C5)cc4)n3)CC2)ncc1Cc1ccccc1 [Compound 231]
46 | 1.01 to 10 nM | 10 to 100 nM | C[C@H](O)CNc1ccc(Nc2ncnc(N3CCN(c4ncc(Sc5ccccc5F)cn4)CC3)n2)cc1 [Compound 205]
47 | 1.01 to 10 nM | 100 to 1000 nM | Cc1c(Nc2ncnc(N3CCN(c4ncc(Sc5ccccc5F)cn4)CC3)n2)cnn1C1COC1 [Compound 147]
